Measured values reported in patent US8008260B2, “Methods of protecting against apoptosis using lipopeptides” (Cleveland Clinic Foundation, priority 2005, dated 2011).
Peptide text beside a SMILES is read from it. * marks the point of attachment. Propyl(2R-PamO,3-PamO) = CCCCCCCCCCCCCCCC(=O)OC[C@H](C*)OC(=O)CCCCCCCCCCCCCCC

Legend:
TLR2/TLR6 heterodimer = biological target: T1, TLR2/TLR6 heterodimer (Homo sapiens, UniProt O60603+Q9Y2C9); assay: NF-κB-dependent reporter activity in 293 cells expressing the TLR2/TLR6 heterodimer; assay type: cell-based; parameters: NF-κB activation: scale not given here
T1 construct: expressed in transfected cells; host or cells: 293 cells
Procedure: NF-κB-dependent reporter activity was measured in 293 cells that expressed the TLR2/YLR6 heterodimer. […] None of the non-palmitoylated corresponding peptides activated the NF-κB reporter (FIG. 18B). The peptide component of CBLB617 has a (−4) charge, which should prevent it from interacting with negatively charged cell surface markers. […] Table 5 summarizes the in vitro activity and solubility of all the compounds.

ICR mice = assay: Radioprotection against total body gamma irradiation (TBI), 30-day survival; assay type: in vivo
Description: CBLB601, a R-Pam2-lipopeptide with the peptide moiety consisting of C-SKKKK (SEQ ID NO: 8), was selected for more detailed characterization as a radioprotector based upon its ability to activate NF-κB and preliminary in vivo data on radioprotection in NIH-SWISS mice (see Example 2). The objectives of this study were to determine the optimal dose, route of administration, and time of administration of CBLB601 to serve as a protector. ICR female mice of 10-15 weeks of age were used, with 10-15 animals per group or condition.
The optimal intraperitoneal administration schedule of CBLB601 was determined by injecting the compound at different times prior to irradiation. […] Therefore, all of the optimization experiments were performed with 10 Gy of total body irradiation (TBI). A dose of 3 μg of BCLB601/mouse (1/10 NOAEL) was chosen as the starting dose. Thus, 3 μg of CBLB601 was injected i.p. into ICR mice at 0.5 h, 1 h, 6 h, and 24 h or 1 h, 24 h, 48 h, 72 h, 96 h prior to 10 Gy of TBI (as described in Example 1). […] Injection of CBLB601 24 hrs before irradiation clearly yielded the best radioprotection (90-100% 30-day survival). When the compound was administered 48 hrs before irradiation, the radioprotection was ˜30%. Administration of CBLB601 at 1 hr prior to irradiation produced inconsistent results ranging from 80% protection in one experiment (FIG. 5B) to almost no protection (20%) in another experiment (FIG. 5A).
To determine the optimal radioprotective dose of CBLB601, the timing of injection and level of irradiation were kept constant, while the dose of CBLB601 was varied. ICR mice were injected i.p. with 1, 3, 10, 20, or 30 μg of CBLB601/mouse or 0.1, 0.3, 1, 3, 10, or […] 24 hrs prior to irradiation (10 Gy of TBI), and their survival was monitored for 30 days. The best protective dose was 3 μg/mouse, which supported a survival of 100% (FIGS. 6 A and B). […] Thus, the optimal protective dose of CBLB601 was determined to be 3 μg/mouse.
To determine the level of radiation that was protected by CBLB601, radioprotectant-treated and control mice were exposed to increasing levels of TBI. Groups of ICR mice were injected i.p. with either 3 μg CBLB601/mouse or PBS, and then 24 h later they received 10, 11, 12, 13, 14, and 15 Gy doses of TBI. Survival was recorded over 30 days. […] All of the mice irradiated with 10-11 Gy of TBI died between days 12-14 post irradiation, which was typical for death due to hematopoietic failure. All of the mice that received 14-15 Gy of TBI died between days 7-9 post irradiation, which was typical for mortality due to radiation-induced intestinal damage. Mice that were irradiated with 12-13 Gy of TBI died at intermediate times, which was typical for a mixed etiology of radiation-induced mortality. […] To reach a statistically significant 10% difference between control and CBLB601-treated mice, experimental groups of at least 50 mice must be used. Although CBLB601 rescued 100% of mice from 10 Gy of TBI, its protection at 11 Gy of TBI was only 20%. […] This may be indicative of a combined toxicity of the drug and the irradiation.
CBLB601 was administered intramuscularly to determine the optimal route of administration of this compound (especially since this would be the preferred route of administration for humans). […] In another experiment, increasing doses of CBLB601 administered i.m. were tested against 10, 11, and 12 Gy doses of […] (FIG. 9). […] A summary of the dose-dependency of the radioprotection of […] administered i.p. or i.m. 24 h prior to 10 Gy of TBI is shown in FIG. 10.
The optimal schedule of intramuscular administration of CBLB601 was determined by varying the time between drug delivery and irradiation. ICR mice were injected i.m. with 3 μg of CBLB601/mouse 24 h, 6 h, 3 h, and 1 h prior to TBI and +1 h, +3 h after TBI (FIG. 12A), as well as 48 h, 36 h, 24 h, 12 h, and 6 h prior to TBI (FIG. 12B). […]

mice = assay: Mitigation of radiation injury, injection 1 hr after TBI; assay type: in vivo
Procedure: The ability of CBLB612 to serve as a mitigator of lower dose radiation injury was also examined. For this, 50 μg of CBLB612/mouse was injected intramuscularly 1 hr after exposure to 8.5, 9, or 10 Gy of TBI.

[1] = Solubility of the lipopeptides
C57B1/6J mice = assay: Survival after gamma irradiation with p53 inhibitor pretreatment; assay type: in vivo; settings: 10 mg/kg i.p.
Procedure: To examine the role of p53 in radiation-induced death, mice were treated with the small molecule inhibitor of p53, pifithrin-alpha (PFTα) (Komarov et al., Science 285:1733-7, 1999) immediately prior to gamma irradiation. C57B1/6J mice (6-8 weeks old males were used here and below, if not indicated otherwise) were injected intraperitoneally with 10 mg/kg of PFTα and then irradiated using a Shepherd 4000 Ci ^137Cesium source at a dose rate of 4 Gy per minute.

T1 sequence (O60603 21-784): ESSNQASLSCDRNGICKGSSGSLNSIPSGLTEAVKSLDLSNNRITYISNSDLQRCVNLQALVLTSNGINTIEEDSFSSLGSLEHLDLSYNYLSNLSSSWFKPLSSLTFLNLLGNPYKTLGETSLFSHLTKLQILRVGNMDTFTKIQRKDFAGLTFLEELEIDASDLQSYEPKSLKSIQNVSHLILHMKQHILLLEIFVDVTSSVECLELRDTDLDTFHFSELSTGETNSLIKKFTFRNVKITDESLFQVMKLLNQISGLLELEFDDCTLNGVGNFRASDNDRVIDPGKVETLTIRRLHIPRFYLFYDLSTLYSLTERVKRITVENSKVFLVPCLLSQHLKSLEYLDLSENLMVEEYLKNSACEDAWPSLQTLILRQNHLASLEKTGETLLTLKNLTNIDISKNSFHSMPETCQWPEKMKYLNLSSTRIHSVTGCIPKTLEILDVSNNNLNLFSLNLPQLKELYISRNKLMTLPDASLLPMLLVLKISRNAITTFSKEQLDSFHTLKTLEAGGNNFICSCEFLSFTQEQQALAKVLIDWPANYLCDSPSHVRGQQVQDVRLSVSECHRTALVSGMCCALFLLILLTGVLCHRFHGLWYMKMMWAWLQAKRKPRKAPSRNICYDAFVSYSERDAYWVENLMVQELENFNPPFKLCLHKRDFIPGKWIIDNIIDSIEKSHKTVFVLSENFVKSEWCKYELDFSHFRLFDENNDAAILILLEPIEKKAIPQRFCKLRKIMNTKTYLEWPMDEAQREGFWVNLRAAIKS
T1 sequence (Q9Y2C9 32-796): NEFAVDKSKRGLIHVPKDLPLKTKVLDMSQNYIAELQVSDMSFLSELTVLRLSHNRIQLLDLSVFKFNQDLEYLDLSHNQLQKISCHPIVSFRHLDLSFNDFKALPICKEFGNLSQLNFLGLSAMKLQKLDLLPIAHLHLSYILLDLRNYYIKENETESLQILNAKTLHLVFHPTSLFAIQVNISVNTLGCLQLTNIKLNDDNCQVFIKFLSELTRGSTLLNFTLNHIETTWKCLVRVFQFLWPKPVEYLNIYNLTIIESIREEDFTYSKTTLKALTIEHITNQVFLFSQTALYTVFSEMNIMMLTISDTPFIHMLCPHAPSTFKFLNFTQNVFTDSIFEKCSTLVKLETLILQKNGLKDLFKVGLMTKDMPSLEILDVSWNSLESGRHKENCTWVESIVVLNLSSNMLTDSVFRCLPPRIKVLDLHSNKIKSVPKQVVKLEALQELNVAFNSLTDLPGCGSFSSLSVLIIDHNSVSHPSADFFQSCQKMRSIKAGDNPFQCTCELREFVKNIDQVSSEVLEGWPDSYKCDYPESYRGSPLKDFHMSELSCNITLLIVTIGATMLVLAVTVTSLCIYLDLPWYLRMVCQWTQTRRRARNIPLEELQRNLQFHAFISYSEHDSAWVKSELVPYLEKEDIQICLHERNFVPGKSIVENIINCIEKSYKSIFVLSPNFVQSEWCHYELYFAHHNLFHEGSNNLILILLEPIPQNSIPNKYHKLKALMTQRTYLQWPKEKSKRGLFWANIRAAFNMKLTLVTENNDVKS

SMILES: CCCCCCCCCCCCCCCC(=O)OC[C@H](CSC[C@H](N)C(=O)N[C@H](C(=O)N[C@@H](CCC(N)=O)C(=O)NCC(=O)N[C@@H](CCC(=O)O)C(=O)N[C@@H](CCC(=O)O)C(=O)N[C@@H](CO)C(=O)N[C@@H](CC(N)=O)C(=O)N[C@@H](CC(=O)O)C(=O)N[C@@H](CCCCN)C(=O)O)C(C)C)OC(=O)CCCCCCCCCCCCCCC [CBLB612] (H-C(Propyl(2R-PamO,3-PamO))VQGEESNDK-OH)
- activation of the NF-κB reporter (in words, compared with CBLB601) (TLR2/TLR6 heterodimer; 293 cells expressing TLR2/TLR6, various doses): better activators than CBLB601
- NF-κB activation (TLR2/TLR6 heterodimer; in vitro activity, 293 cells expressing TLR2/TLR6): 200
- toxicity in combination with radiation (ICR mice; i.m. 24 hours before 10 Gy TBI): no toxicity in combination with radiation
- rank of radioprotective potency (ICR mice; i.m. 24 hrs before 10 Gy TBI): CBLB612>CBLB614>CBLB615
- radioprotector quality compared with CBLB601 (ICR mice; mouse, in vivo): significantly better radioprotectors than CBLB601
- therapeutic index (ICR mice; summary of Example 5): ~20
- survival rate versus PBS (mice; 50 μg/mouse i.m. 1 hr after 8.5, 9 or 10 Gy TBI): increased the survival rate at every dose of radiation
- mice surviving to 27 days (mice; 50 μg/mouse i.m. 1 hr after 8.5 Gy TBI): 90%
- mice surviving to 27 days (mice; 50 μg/mouse i.m. 1 hr after 9 Gy TBI): 70%
- Solubility [1]: Excellent

SMILES: Cc1ccc(C(=O)Cn2c3c(sc2=N)CCCC3)cc1 [PFTα, pifithrin-alpha]
- survival of irradiated mice (C57B1/6J mice; fractioned cumulative 12.5 Gy (5×2.5 Gy)): protected mice
- survival of irradiated mice (C57B1/6J mice; single 9 Gy dose): protected mice
- survival of irradiated mice (C57B1/6J mice; single 12.5 Gy): no effect on the survival
- survival of irradiated mice (C57B1/6J mice; single 25 Gy): no effect on the survival
